Results taken from a melting point compilation (Tetko et al.; mined from patent text by program, amines drawn as free bases though some values may be those of a salt).

SMILES	melting point
CCO[C@@H]1[C@@H](OC)[C@H](C)O[C@@H](OC(=O)N(C(=O)CCC(=O)OC)c2ccc(-c3ncn(-c4ccc(OC(F)(F)C(F)(F)F)cc4)n3)cc2)[C@@H]1OC	72 to 76 °C
CCOC(=O)c1cc(O)nn1-c1ncc(Cl)cc1Cl	164 to 167 °C
C[C@@H]1NC(=O)c2cccc([N+](=O)[O-])c2N[C@H]1C (relative stereo)	170 °C
CNC(=O)Cc1cccc2c(C(C)C)nccc12	153 to 154 °C
Cc1cc(CC(=O)NCc2cccc3c2C(=O)N(C2CCC(=O)NC2=O)C3=O)on1 (stereo not drawn)	179 to 181 °C
OCc1cc(-c2ccccc2)nn1Cc1ccc(Cl)cc1Cl	140 to 141 °C
CCOC(=O)Nc1ccc2nc(S(N)(=O)=O)sc2c1	223 to 224 °C
Cc1nc2c(o1)CCc1ccccc1C2=O	174 to 176 °C
Cc1cccn2c3c(nc12)-c1ccccc1C(=O)C3=O	> 260 °C
FC(F)(F)c1ccc2c(Nc3ccccc3)ncnc2c1	230 to 232 °C
CN1CCCc2cc(C(C)(C(=O)O)c3ccc4c(c3)CCCN4C)ccc21	155 to 157 °C
CCCCc1nc2cccc(C(=O)OC)c2n1Cc1ccc(-c2ccccc2N)cc1	97 to 99 °C
COc1cc2c(cc1OCc1ccccc1)CCN(Cc1cccc(C)c1)C2	81 to 82 °C
O=[N+]([O-])c1ccc(OCCn2ccnc2)cc1	55 to 57 °C
O=c1[nH]cc(Cc2ccncc2)c2ccccc12	189 to 190 °C
CCOC(=O)COc1cc2c(c(O)c1Cl)C(=O)CC1(CCCCC1)O2	103 to 104 °C
CCn1c(=O)oc2cc([N+](=O)[O-])ccc21	133 to 135 °C
Cn1c(OCC(CO)CO)nc2c(NC(=O)c3ccccc3)ncnc21	151 to 153 °C
O=C1C(Br)=CN=CC1Br (stereo not drawn)	320 °C
Cn1c(Cl)cnc1C(OC(=O)OC(C)(C)C)c1cc(F)ccc1F (stereo not drawn)	125 to 126 °C
Cc1ccc(C(=O)NCCCSc2ccncc2)cc1	110 to 111 °C
CCc1nc2c(N)nc3cc(CCCNC(C)=O)ccc3c2n1CC1CCOCC1	209 to 211 °C
CCOC(=O)c1cnc(Nc2cccc([N+](=O)[O-])c2)[nH]c1=O	226 to 228 °C
CC(c1ccc(-c2ccccc2)c(F)c1)c1csc(NC(=O)c2ccccc2)n1 (stereo not drawn)	147 to 148 °C

SMILES	melting point
O=C(O)c1nc2ccccc2nc1Cl	133 to 139 °C
Oc1ccc2c(c1O)Cc1ccccc1-2	159 to 162 °C
CCCc1c(O)c(C(C)=O)cc(Cl)c1OCCCCCOc1c(C(C)=O)ccc(OCC(=O)O)c1CCC	77 to 80 °C
COc1c(N)cc(C2(C)CC2)cc1NS(C)(=O)=O	144 to 146 °C
N#CCc1ccccc1NC(=O)C(F)(F)C(F)(F)C(F)(F)F	76 to 79 °C
Nc1cc(-n2cccc2)ccc1Nc1cccc(-n2ccnc2)c1	207 to 212 °C
CCS(=O)(=O)Nn1c(=O)[nH]c2cc(C(F)(F)F)c(-n3cnnc3)cc2c1=O	185 to 195 °C
Cc1ccc(S(=O)(=O)N2CCC[C@H]2CN2CCN(C)CC2)cc1	96.5 to 97.7 °C
Cc1oc(-c2ccccc2)nc1CCOc1ccc(CCCC=C2OC(=O)NC2=O)cc1	152 to 153 °C
COc1ccc(S(=O)(=O)Nc2cc(NC(=O)c3ccc(Cl)c(Cl)c3)ccc2OC)cc1	225 to 227 °C
CC(C)(C)C(F)(F)c1ccc(C(N)=O)cc1	128 to 132 °C
NC1=NCC(COc2ccccc2F)O1 (stereo not drawn)	124 °C
Cc1nc(Nc2ccccc2)sc1-c1ccncc1	168 to 170 °C
CCCc1c(OCCCS(=O)(=O)c2ccc(C(=O)CCC(=O)O)cc2F)ccc(C(C)=O)c1O	154 to 156 °C
CCOC(=O)C(CCCN(C)CCc1ccc(OC)c(OC)c1)(C(=O)OCC)c1ccc(OC)c(OC)c1	101 to 104 °C
CCCCc1nc(Cl)c(C(=O)OC)n1Cc1ccc(-c2ccccc2C(=O)O)cc1	154 to 155 °C
Cc1ccc(C(=O)Nc2ccc(-n3ccnc3)c(C(F)(F)F)c2)cc1Nc1nccc(-c2cccnc2)n1	226 to 229 °C
CSC1=Nc2ccccc2C(c2ccccc2)=NC1	167 to 168 °C
CN1C(=O)C2=C(c3ccccc3)N(C)C(=O)C2=C1c1ccccc1	236 to 238 °C
O=P(Oc1ccccc1O)(Oc1ccccc1O)c1ccccc1	270 °C
COc1cc(C(=O)O)ccc1Cc1cccc2ccc(C(N)=O)cc12	283 to 285 °C
CON(C)C(=O)c1cc(Br)ccc1N	80 to 81 °C
COc1cc(OC)c2c(=O)c3oc4ccccc4c3oc2c1	261 to 263 °C

The remaining lines, values ahead:

melting point	SMILES
172 to 174 °C	COc1cc(OC)nc(Oc2cccc3c2C(=O)OC3F)n1 (stereo not drawn)
169 to 170 °C	CCOC(=O)c1cccc(NC(=O)c2ccc(OC)c(Nc3cccc(C(F)(F)F)c3)c2)c1
262 to 285 °C	CC(O)c1cnc2c(-c3cc(-c4ccccc4)cs3)cnn2c1O (stereo not drawn)
154 to 156 °C	Cc1ccc(Sc2ccc3c(c2)CC[C@H]2N(C)C(=O)CC[C@]32C)cc1
95 to 98 °C	OC1(c2ccccc2)CCN(CCCC2COc3ccccc3O2)CC1 (stereo not drawn)
140 to 141 °C	O=C1COC2(CCN(CCc3ccccc3)CC2)CN1
144 °C	COC(=Cc1ccc(-c2cccc(N(C)C(=O)NCCc3ccccc3)c2)cc1)C(=O)O
74 to 75 °C	CCCCCCCCCCNC(=O)CCCO
75 to 79 °C	O=C(O)[C@@H]1CCc2ccccc2N1C(=O)OCc1ccccc1
90 to 91 °C	O=C(O)CCCCCNC(=O)C(F)(F)F
206 to 207 °C	OCc1cc2cc(-c3ccc4ccc(Cl)cc4n3)ccc2o1
119 to 123 °C	CCCCC1(CCCC)CS(=O)(=O)c2ccc(N(C)C)cc2[C@@H](c2ccc(OCCCCCSc3nnnn3CC(=O)O)cc2)[C@H]1O
151 to 153 °C	CCn1ncc2c3onc(-c4ccccc4)c3cnc21
192 to 193 °C	COc1cccc(Nc2cc(-c3nnc(C)o3)ccn2)c1
122 °C	O=C(CC1CCN(C(=O)OCc2ccccc2)CC1)c1c[nH]c2ccccc12
226 to 228 °C	Nc1c(NCCCOc2cc(CN3CCCCC3)ccn2)c(=O)c1=O
69.5 to 72 °C	Cc1cccc(C)c1NC(C)CN(C)C=O (stereo not drawn)
125 to 126 °C	Cc1cccc(CC(=O)O)c1OCc1nc(OC(C)C)c(C(=O)NCc2ccc(Cl)cc2Cl)s1
150 to 152 °C	COc1ccccc1N1CCN(CCOc2ccc(-c3cn4cccnc4n3)cc2)CC1

melting point	SMILES
110 °C	Cn1c(-c2ccc(Cl)cc2)c(C#N)c(Cl)c1C(F)(F)F
161 °C	C#Cc1cccc(-n2ncc3c(NCc4ccc5c(c4)OCCO5)ncnc32)c1
175 to 176 °C	CCOC(=O)c1cn(-c2ccc(OC)cc2)c2c(F)c(F)c(F)c(C)c2c1=O
52 to 54 °C	CCOC(=O)Cc1ccc(C(=O)Cl)n1C
141 °C	C#CCNc1c(-c2c(F)cc(F)cc2F)c(Cl)nc2ncnn12
126 to 129 °C	Cc1cccc2ncc(C(=O)NC(C)(C)CC(C)(C)C)c(=O)n12
133 °C	COC(=O)c1ccc(/C=C/C(=O)NOC2CCCCO2)cc1 (stereo not drawn)
154 to 155 °C	Cc1ccc(S(=O)(=O)N[C@@H](C)C(=O)Oc2c[nH]c(-c3ccccc3)c2)cc1
132 to 133 °C	Cn1nc(Cl)n(-c2ccccc2CBr)c1=O
93 to 94 °C	Nc1ccc(Cl)cc1C(=O)C(F)(F)F
117 to 120 °C	CC(C)(C)OC(=O)NC1C=C(C(=O)O)OC1 (stereo not drawn)
59 to 60 °C	CCCCCCCCCCCCCC=C(C(=O)O)c1ccc2c(c1)C(C)(C)CCC2(C)C
131 to 134 °C	CCCCn1ccc(C=CC(=O)O)cc1=O
> 260 °C	Nc1nc2c(s1)C(=O)c1ccccc1C2=O
144 to 145 °C	O=[N+]([O-])c1ccc(OCCc2ccc(CO)cn2)cc1
162 to 167 °C	Cc1cc(C)c(N)c(C(N)=O)c1
146 to 148 °C	Clc1ccc(-c2c[nH]cn2)cc1
95 to 98 °C	COC(=O)CN(C)C(=O)c1c(OCc2ccccc2)ccc2c(C(F)(F)F)c(OC)ccc12
112 to 115 °C	COc1cccc(C(=CC2CCN(CCCCCCCCc3cccnc3)CC2)c2cccc(OC)c2)c1

melting point	SMILES
115 to 119 °C	CN(Cc1cc2c(=O)c(C(=O)NCc3ccc(Cl)cc3)cn(C)c2o1)CC(O)c1ccc(-c2ccccc2)o1 (stereo not drawn)
60 to 61 °C	CCOc1ccc(OCC)c(C=O)c1
163 to 165 °C	N#CN1CCC2(CC1)CN(c1ccccc1[N+](=O)[O-])c1cc(Cl)ccc12
72 to 78 °C	C=CCOC(=O)NC(C)(C)c1ccc(-c2nc(Nc3ccc(CCn4ccnc4)cc3)ncc2Cl)cc1
171 to 172 °C	COc1cc(OC)c(-c2cccs2)cc1/C=C/C(=O)c1ccc(S(=O)(=O)NCCN2CCOCC2)cc1
117 °C	CCCCOc1ccc(-c2cnc(Cl)nc2)cn1
75 to 76 °C	CCOC(=O)Cn1c(C(=O)OCc2ccccc2)cc2cc(F)ccc21
80 to 81 °C	COC(=O)c1ccc(-c2ccccc2CBr)cc1
125 to 127 °C	CCCN(CCC)CCc1ccc(O)c2[nH]ncc12
99 to 100 °C	COC(=O)c1ccc2c(c1)CCN2Cc1cccc([N+](=O)[O-])c1
144 to 146 °C	CC1(C)CC(N2C(=O)c3ccc(C(=O)OCC(O)c4ccccc4)cc3C2=O)CC(C)(C)N1 (stereo not drawn)
90 to 92 °C	C[C@@](O)(C(=O)Nc1ccc(S(=O)(=O)c2ccccc2F)cc1Cl)C(F)(F)F
175 to 176 °C	COc1ccc(Cn2cnc3c(-c4ccco4)ncnc32)cc1
228 to 229 °C	CCCc1nc2c(N)nc3ccccc3c2n1CC1(O)CCC1
129 to 132 °C	CC1(C)Oc2cc(Cl)c(C#N)cc2C2OC21 (stereo not drawn)
125 to 128 °C	CC1=C(C(=O)OCC2CCN(Cc3ccccc3)C2)C(c2cccc([N+](=O)[O-])c2)c2c(ccnc2OC(C)C)N1 (stereo not drawn)
102 to 104 °C	CCOC(=O)C1C(N(C)C(=O)C(F)(F)F)C(=O)N1c1ccc(OC)cc1 (stereo not drawn)
99.5 to 100 °C	COCCCNc1nc2cc(Cl)c(Cl)cc2nc1-c1ccccn1
